Where “and” joins values, the source holds several entries; their conditions need not be identical. Identical values can stand only once.
Tests used:
PBMCs = experiment: Extracellular metabolic flux assay (Seahorse Mito Stress Test, OCR and ECAR); type: cell-based, human; settings: for glycolysis rates: vs untreated stimulated controls; for ATP coupled OCR / Basal OCR / Maximal OCR / Spare capacity OCR: PBMC, per donor
Method: The Seahorse XFe96 Analyzer (Seahorse Bioscience) was used to measure oxygen consumption rate (OCR) and extracellular acidification rate (ECAR) in human PBMCs. 1.5 × 10^6 cells/well were seeded in 24-well plates and stimulated using plate-bound anti-CD3 antibody (2 μg/ml, clone OKT3, BD Biosciences), soluble anti-CD28 antibody (0.5 μg/ml, clone CD28.2, Biolegend) and IL-2 (10 ng/ml, Proteintech) in RPMI-1640 (with 10% FBS, 2.05 mM L-glutamine (Sigma), and 55 μM 2-ME (Gibco)). Cells were treated with or without 5 and 10 µM Tigecycline for 6 days with a half medium change after 3 days. After treatment, cells were washed with Seahorse XF RPMI assay medium, and then 200,000 cells per well were seeded (in triplicate) in 40 μl assay medium in XF 96-well cell culture microplate coated with poly-D-lysine (Sigma). The plate was centrifuged at 300 g for 5 s with no brake, rotated 180 °, and centrifuged again for 5 s at 300 x g. After centrifugation, 140 μl of assay medium was added per well and the plate was left to stabilize in a 37 °C, non-CO2 incubator for 40 min. During seahorse, wells were sequentially injected with compounds to achieve final concentrations of […] oligomycin (Sigma); 2 μM FCCP (Sigma); 0.5 μM rotenone (Sigma) together with 0.5 μM antimycin A (Sigma). OCR was measured for each well three times, every three min, before and after each injection. OCR was normalized to protein concentration using a BCA Protein Assay kit (ThermoFisher Scientific) conducted according to the manufacturer’s instructions.

[1] = test system: CD4+ T cell subsets (Tn, Tcm, Tem); experiment: Proliferation of FACS-isolated naive, central memory and effector memory CD4+ T cells; type: cell-based, human
Method: Thawed PBMCs were washed with RPMI complemented with 10% FBS, 2.05 mM L-glutamine (Sigma), and 55 μM 2-ME (Gibco) before resting at 37 °C (5% CO2) for 30 min. After counting, cells were resuspended in FACS buffer at a density of 5 × 10^7 cells/ml. CD4^+ T cells were isolated using CD4^+ T cell negative isolation kits (Miltenyi Biotech) and enriched using CD4^+ T cell Enrichment kits (Miltenyi Biotech). Purified CD4^+ T cells were counted and stained with CTV dye and live/dead dye. Subsequently, surface makers were stained at 4 °C in FACS buffer (DPBS + 2% FBS). The following panels were used to classify human T CD4^+ cells from the live lymphocyte gate: naïve CD4^+ T cells: Aqua^-CD4^+CD45RA^+CD27^+; central memory CD4^+ T cells: Aqua^-CD4^+CD45RA^-CD27^+, effector memory CD4^+ T cells: Aqua^-CD4^+CD45RA^-CD27^-. After staining, cells were washed, resuspended and sorted using a FACSAria Fusion (BD Biosciences). Sorted cells were collected into PBS complemented with 2% FBS at 4 °C. Cells were then harvested via centrifugation and resuspended in RPMI-1640 ( + 10% FBS, 2.05 mM L-glutamine (Sigma), and 55 μM 2-ME (Gibco) before counting. Sorted CD4^+ subsets were counted and 85,000 cells per well seeded onto 96-well U-bottom plates with/without Human T-Activator CD3/CD28 beads (Invitrogen) at a 1:2.8 cell:bead ratio and 10 ng/ml IL-2 (Proteintech) in RPMI-1640 ( + 10% FBS, 2.05 mM L-glutamine (Sigma), and 55 μM 2-ME (Gibco). At the same time, tigecycline in serial concentrations (from 2.5 to 10 μM) was added. A half medium change took place after 3 days, and cells were harvested after 6 days for flow cytometry. Antibodies used in the study are presented in Supplementary Table 2.

CN(C)c1cc(NC(=O)CNC(C)(C)C)c(O)c2c1C[C@H]1C[C@H]3[C@H](N(C)C)C(O)=C(C(N)=O)C(=O)[C@@]3(O)C(O)=C1C2=O [Tigecycline, tigecycline]
glycolysis rates (PBMCs; 5 uM treatment): trended towards an increase | glycolysis rates (PBMCs; 10 uM treatment): trended towards being decreased | ATP coupled OCR (PBMCs; 5um): 0.02281 pmol/min/Norm. ug protein and -0.09216 pmol/min/Norm. ug protein and -0.102 pmol/min/Norm. ug protein and -0.498 pmol/min/Norm. ug protein | Basal OCR (PBMCs; 5um): -0.181 pmol/min/Norm. ug protein and -0.2066 pmol/min/Norm. ug protein and 0.2924 pmol/min/Norm. ug protein and 0.06036 pmol/min/Norm. ug protein | Maximal OCR (PBMCs; 5um): 0.6209 pmol/min/Norm. ug protein and 0.08625 pmol/min/Norm. ug protein and 0.8496 pmol/min/Norm. ug protein and -0.7482 pmol/min/Norm. ug protein | Spare capacity OCR (PBMCs; 5um): 0.2929 pmol/min/Norm. ug protein and 0.5571 pmol/min/Norm. ug protein and -0.8086 pmol/min/Norm. ug protein | ATP coupled OCR (PBMCs; 10um): -0.2018 pmol/min/Norm. ug protein and -0.1474 pmol/min/Norm. ug protein and -0.3438 pmol/min/Norm. ug protein and 0.00593 pmol/min/Norm. ug protein | Basal OCR (PBMCs; 10um): -0.1538 pmol/min/Norm. ug protein and -0.01961 pmol/min/Norm. ug protein and -0.5181 pmol/min/Norm. ug protein and 0.03583 pmol/min/Norm. ug protein | Maximal OCR (PBMCs; 10um): 0.1774 pmol/min/Norm. ug protein and 0.3784 pmol/min/Norm. ug protein and -0.2836 pmol/min/Norm. ug protein and 0.05421 pmol/min/Norm. ug protein | Spare capacity OCR (PBMCs; 10um): 0.398 pmol/min/Norm. ug protein and 0.2345 pmol/min/Norm. ug protein and 0.01838 pmol/min/Norm. ug protein | glycolysis (ECAR) (PBMCs; stimulated PBMCs, 5 and 10 μM, 6 days): did not observe a major compensatory increase in glycolysis | basal, ATP-coupled, maximal and spare oxygen consumption rates (PBMCs; stimulated PBMCs, 5 and 10 μM, 6 days after stimulation): reduced | proliferation of naive, central memory and effector memory CD4+ T cells ([1]; 10 μM, 6 days): significantly inhibited the proliferation of all subsets | % Cells in each division ([1]; Naïve, 2.5μM, division number 0): 4.49% and 2.85% and 0.99% | % Cells in each division ([1]; Naïve, 2.5μM, division number 2): 44.1% and 38.6% and 39.3% | % Cells in each division ([1]; Naïve, 2.5μM, division number 5): 0.076% and 0.28% and 0.23% | % Cells in each division ([1]; Naïve, 2.5μM, division number 6): 0.17% and 0.1% and 0.16% | % Cells in each division ([1]; Naïve, 2.5μM, division number 7): 0.25% and 0.12% | % Cells in each division ([1]; Naïve, 5μM, division number 0): 3.52% and 9.14% and 5.5% | % Cells in each division ([1]; Naïve, 5μM, division number 1): 30.8% and 43.7% and 27.9% | % Cells in each division ([1]; Naïve, 5μM, division number 2): 51% | % Cells in each division ([1]; Naïve, 5μM, division number 5): 0.058% and 0.021% and 0.055% | % Cells in each division ([1]; Naïve, 5μM, division number 6): 0.28% and 0.21% and 0.25% | % Cells in each division ([1]; Naïve, 5μM, division number 7): 0.45% and 0.34% and 0.31% | % Cells in each division ([1]; Naïve, 10μM, division number 0): 20.7% and 12.2% and 12.7% | % Cells in each division ([1]; Naïve, 10μM, division number 1): 58.7% and 45.6% and 58.3% | % Cells in each division ([1]; Naïve, 10μM, division number 2): 19.7% and 37.8% and 26.9% | % Cells in each division ([1]; Naïve, 10μM, division number 5): 0% and 0.056% and 0.037% | % Cells in each division ([1]; Naïve, 10μM, division number 6): 0.22% and 0.27% and 0.31% | % Cells in each division ([1]; Naïve, 10μM, division number 7): 0.47% and 0.48% and 0.72% | % Cells in each division ([1]; TCM, 2.5μM, division number 0): 11.5% and 6.18% and 6.94% | % Cells in each division ([1]; TCM, 2.5μM, division number 1): 38% and 27.5% and 31.5% | % Cells in each division ([1]; TCM, 2.5μM, division number 2): 33.5% and 37.9% and 38.1% | % Cells in each division ([1]; TCM, 2.5μM, division number 5): 0.31% and 0.62% and 0.44% | % Cells in each division ([1]; TCM, 2.5μM, division number 6): 0.5% and 0.64% and 0.43% | % Cells in each division ([1]; TCM, 2.5μM, division number 7): 0.62% and 0.7% | % Cells in each division ([1]; TCM, 5μM, division number 0): 31.4% and 19.3% and 18.6% | % Cells in each division ([1]; TCM, 5μM, division number 1): 46.4% and 46.1% and 47.3% | % Cells in each division ([1]; TCM, 5μM, division number 2): 17% and 26.2% and 27.6% | % Cells in each division ([1]; TCM, 5μM, division number 5): 0.095% and 0.16% and 0.1% | % Cells in each division ([1]; TCM, 5μM, division number 6): 0.58% and 0.85% and 0.47% | % Cells in each division ([1]; TCM, 5μM, division number 7): 1.11% and 1.15% and 0.74% | % Cells in each division ([1]; TCM, 10μM, division number 0): 51.5% and 35.3% and 35.1% | % Cells in each division ([1]; TCM, 10μM, division number 1): 39.1% and 48.8% and 52.5% | % Cells in each division ([1]; TCM, 10μM, division number 2): 6.84% and 12.8% and 10.7% | % Cells in each division ([1]; TCM, 10μM, division number 5): 0.11% and 0.14% and 0.05% | % Cells in each division ([1]; TCM, 10μM, division number 6): 0.69% and 0.83% and 0.56% | % Cells in each division ([1]; TCM, 10μM, division number 7): 1.26% and 0.83%
